Columns and labels:
[1] = tested on: HEK-293 cells transfected with CD14 alone; test: NF-κB reporter in HEK-293 cells transfected with CD14 and reporter alone (no corresponding TLR); format: cell-based, human; settings: data not shown
human TLR-2 = molecular target: T1, human TLR-2 (Homo sapiens, UniProt O60603); test: TLR-transfection NF-κB reporter (pELAM) assay, HEK-293 cells transfected with TLR-2 and CD14; format: cell-based
T1 construct: host or cells: HEK-293
Description: (§1) For transfection assays, human embryonic kidney (HEK)-293 cells were plated in 96 well plates at 10^4 cells per well and transfected after 24 h using Genejuice (Novagen) according to manufacturer's instructions. The following amounts of constructs were added to each well: 30 ng of human TLR-2, TLR-5 or TLR-4 (co-expressing MD-2), 30 ng of pCD14 and 10 ng of NF-κB-sensitive luciferase-reporter construct (pELAM). Cells were grown for 3 days post transfection prior to 18 h challenge. Promoter expression was calculated as fold induction relative to cells cultured in medium alone +/−SD. Endogenous expression of TLRs in HEK-293 has been ruled out by RT-PCR by the inventor.
(§2) Log-transformed PAMP concentrations were then plotted against fold-induction of NF-κB reporter to generate a standard curve. […] For example, results presented as 200 ng/g BLP-equivalent means that each gramme of food contains TLR-2-stimulants with a capacity to stimulate TLR-2-signalling equal to that of 200 ng Pam3CSK4. Food extracts were measured at 1:10 dilution in DMEM/10% FCS in duplicate. If signals exceeded the range of the standard curve, further dilutions were prepared and reassayed.
Samples were then maintained at 100 ° C. for 1 -120 min, before cooling, diluting 1:10 in DMEM/10% FCS and applying to HEK-293 cells transfected with TLR-2 or TLR-4/MD2 for measurement of capacity to induce TLR-signalling as described above. […] Samples were then neutralised by addition of NaOH solution and applied to TLR-transfected HEK-293 cells as described above.
As a negative control, parallel samples were supplemented with an equal molarity of NaCl to account for increased salinity of samples due to acid/base neutralisation. […] Control samples were also heat-treated for 10 minutes.
TLR-stimulants were quantified in both whole heat-treated saliva (100° C. for 10 minutes), intended to reflect total bacteria-associated TLR-stimulants, and in saliva diluted 1:10 in PBS and filter-sterilised (0.22 μm, Acrodisc), intended to reflect soluble TLR-stimulants in human saliva. A recently developed bioassay based upon the measurement of NF-κB-dependent reporter activation in TLR-deficient HEK-293 cells transfected with human TLR2, TLR4/MD2 or TLR5, and callibrated with TLR2-, TLR4- or TLR5-stimulating standards (Erridge et al., 2010, Public Library of Science One 5, e9125), was used to quantify TLR-stimulants in saliva samples. Briefly, cells were plated in 96-well plates at 2×10^4 cells per well and transfected after 24 h using Genejuice (Novagen). Amounts of construct per well were 30 ng of human TLR2, TLR4 (co-expressing MD-2) or TLR5 (Invivogen), 30 ng of CD14 and 10 ng of firefly luciferase-reporter construct driven by the NF-KB dependent E-selectin promoter (pELAM). 3 days after transfection, cells were challenged in triplicate with heat-treated or sterile-filtered saliva samples diluted 1:100 in DMEM/1%FCS. […] After 18 h, NF-κB-dependent reporter expression was measured using Promega Dual-Glo reagent. Fold induction of reporter was calculated relative to cells cultured in medium alone and a standard curve was prepared by plotting fold NF-κB induction vs concentration for each standard PAMP. […] For example, results presented as 200 ng/ml lipopeptide-equivalents indicate that 1 ml of saliva contains TLR2-stimulants with a capacity to stimulate TLR2-signalling equal to that of 200 ng Pam3CSK4. The coefficient of variance of the assay averaged ˜20%. […]

human monocytes = test: Challenge of human monocytes with food extracts, TNF-α (L929 bioassay) / IL-6 (ELISA) secretion; format: cell-based; settings: 25 μg/ml OxPAPC, filter-sterilised food extracts, 4 h
Description: Venous blood was collected by venepuncture from consenting healthy human subjects according to the guidelines laid down in the Declaration of Helsinki and all procedures involving human subjects were approved by the University of Leicester College of Medicine Research Ethics Committee. Written informed consent was obtained from all subjects. Peripheral blood mononuclear cells (PBMC) were prepared by density gradient centrifugation at 800 g for 25 min using Histopaque-1077 (Sigma). Recovered cells were washed twice in PBS solution, resuspended in RPMI/10% fetal calf serum (FCS) (Sigma) and plated in 96-well plates at 4×10^5 cells per well. Monocytes were prepared from PBMC by plastic adherence (1 h at 37° C.), followed by gentle washing to remove non-adherent cells. Remaining monocytes were then challenged by adding a 1:20 dilution of each sterile-filtered food extract in tissue culture medium. After incubation at 37° C. for 4 h, supernatants were removed for assay of TNF-α content by L929-cell bioassay as described in Delahooke et al. (1995, Infect. Immun. 63, 840-846), or IL-6 levels were measured by ELISA (R&D) after 18 h.

[2] = tested on: HEK-293 cells transfected with CD14 alone; settings: 10 μg/ml, positive control; cited from earlier work
human TLR-5 = molecular target: T2, human TLR-5 (Homo sapiens, UniProt O60602); test: TLR-transfection NF-κB reporter (pELAM) assay, HEK-293 cells transfected with TLR-5 and CD14; format: cell-based
T2 construct: host or cells: HEK-293
Description: as §1, §2
TLR-stimulants were quantified in both whole heat-treated saliva (100° C. for 10 minutes), intended to reflect total bacteria-associated TLR-stimulants, and in saliva diluted 1:10 in PBS and filter-sterilised (0.22 μm, Acrodisc), intended to reflect soluble TLR-stimulants in human saliva. A recently developed bioassay based upon the measurement of NF-κB-dependent reporter activation in TLR-deficient HEK-293 cells transfected with human TLR2, TLR4/MD2 or TLR5, and callibrated with TLR2-, TLR4- or TLR5-stimulating standards (Erridge et al., 2010, Public Library of Science One 5, e9125), was used to quantify TLR-stimulants in saliva samples. […] After 18 h, NF-κB-dependent reporter expression was measured using Promega Dual-Glo reagent. Fold induction of reporter was calculated relative to cells cultured in medium alone and a standard curve was prepared by plotting fold NF-κB induction vs concentration for each standard PAMP. […]

[3] = pH 1.0 with HCl 2 h or 3 h, then neutralised

T2 sequence (O60602 21-858): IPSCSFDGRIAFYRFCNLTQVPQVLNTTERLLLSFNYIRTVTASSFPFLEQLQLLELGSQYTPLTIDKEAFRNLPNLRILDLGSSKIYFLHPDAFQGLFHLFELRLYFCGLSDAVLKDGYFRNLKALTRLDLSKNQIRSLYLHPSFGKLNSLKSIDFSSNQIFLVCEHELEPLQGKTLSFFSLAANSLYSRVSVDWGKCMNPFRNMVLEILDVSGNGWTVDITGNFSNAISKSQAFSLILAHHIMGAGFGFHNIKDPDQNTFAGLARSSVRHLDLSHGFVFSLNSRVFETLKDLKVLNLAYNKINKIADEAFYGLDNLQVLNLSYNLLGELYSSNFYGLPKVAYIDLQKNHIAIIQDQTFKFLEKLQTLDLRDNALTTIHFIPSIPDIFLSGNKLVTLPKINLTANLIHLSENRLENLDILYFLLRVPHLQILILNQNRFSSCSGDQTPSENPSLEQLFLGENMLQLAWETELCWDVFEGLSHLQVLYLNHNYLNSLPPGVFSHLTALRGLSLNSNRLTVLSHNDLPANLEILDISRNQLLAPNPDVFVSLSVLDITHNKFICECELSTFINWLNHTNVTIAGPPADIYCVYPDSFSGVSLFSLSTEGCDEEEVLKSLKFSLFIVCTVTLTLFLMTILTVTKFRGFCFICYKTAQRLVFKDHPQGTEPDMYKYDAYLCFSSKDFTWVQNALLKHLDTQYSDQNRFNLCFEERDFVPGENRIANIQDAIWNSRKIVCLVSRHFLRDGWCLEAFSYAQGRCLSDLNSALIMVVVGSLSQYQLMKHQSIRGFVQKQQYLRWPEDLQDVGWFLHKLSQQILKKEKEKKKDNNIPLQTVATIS
T1 sequence (O60603 21-784): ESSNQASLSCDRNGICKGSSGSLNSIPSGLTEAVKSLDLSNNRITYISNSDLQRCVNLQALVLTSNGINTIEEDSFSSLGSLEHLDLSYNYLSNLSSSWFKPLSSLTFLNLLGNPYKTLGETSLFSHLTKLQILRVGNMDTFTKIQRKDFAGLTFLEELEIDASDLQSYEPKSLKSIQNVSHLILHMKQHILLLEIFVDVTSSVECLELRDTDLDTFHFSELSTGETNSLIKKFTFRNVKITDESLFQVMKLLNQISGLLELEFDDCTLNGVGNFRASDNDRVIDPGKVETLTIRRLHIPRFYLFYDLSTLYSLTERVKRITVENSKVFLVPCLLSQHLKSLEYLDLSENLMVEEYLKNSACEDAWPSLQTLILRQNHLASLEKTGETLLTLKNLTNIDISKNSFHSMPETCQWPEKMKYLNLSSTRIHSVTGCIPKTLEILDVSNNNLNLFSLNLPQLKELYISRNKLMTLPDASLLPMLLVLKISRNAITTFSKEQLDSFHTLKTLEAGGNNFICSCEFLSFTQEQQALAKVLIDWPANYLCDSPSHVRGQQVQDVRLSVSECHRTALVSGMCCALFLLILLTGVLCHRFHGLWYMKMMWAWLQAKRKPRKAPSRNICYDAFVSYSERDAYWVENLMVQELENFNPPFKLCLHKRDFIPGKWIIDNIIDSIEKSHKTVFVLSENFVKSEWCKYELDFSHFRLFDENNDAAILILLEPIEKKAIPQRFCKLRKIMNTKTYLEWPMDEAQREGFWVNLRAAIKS

Pam3CSK4
Activation of HEK-293 cells transfected with CD14 alone, or with non-corresponding TLRs [1]: unable to activate | Biological activity (TLR-2 signalling) after heating (human TLR-2; 100 ng/ml, 100° C. for up to 2 hours): not measurably reduced | Minimum concentration to which transfected cells were sensitive (human TLR-2; TLR-2 transfected HEK-293): 0.1 ng/mL | Capacity to stimulate TLR-2 after low pH treatment (human TLR-2; [3]): did not affect | Biological activity (TLR-2) after protease treatment (human TLR-2; proteinase-K 37° C. 1 h): unaffected

oxidised palmitoyl-arachidonyl phosphocholine [OxPAPC]
TNF-α secretion in response to each stimulant-containing foodstuff in presence of OxPAPC (human monocytes): completely abrogated | Inhibition of TLR2-dependent signalling induced by patient saliva samples (human TLR-2; 25 μg/ml OxPAPC, filter-sterilised saliva 1:100, 18 h): significantly blocked

polyinosinic acid [PolyI:C]
NF-κB activation in HEK-293 cells [2]: stimulates NF-κB activation independently of TLR2, TLR4 or TLR5

B1: flagellin: S. typhimurium flagellin purchased from Invivogen, TLR5 standard (protein, UniProt P06179 2-495, looked up)
Flagellin: AQVINTNSLSLLTQNNLNKSQSALGTAIERLSSGLRINSAKDDAAGQAIANRFTANIKGLTQASRNANDGISIAQTTEGALNEINNNLQRVRELAVQSANSTNSQSDLDSIQAEITQRLNEIDRVSGQTQFNGVKVLAQDNTLTIQVGANDGETIDIDLKQINSQTLGLDTLNVQQKYKVSDTAATVTGYADTTIALDNSTFKASATGLGGTDQKIDGDLKFDDTTGKYYAKVTVTGGTGKDGYYEVSVDKTNGEVTLAGGATSPLTGGLPATATEDVKNVQVANADLTEAKAALTAAGVTGTASVVKMSYTDNNGKTIDGGLAVKVGDDYYSATQNKDGSISINTTKYTADDGTSKTALNKLGGADGKTEVVSIGGKTYAASKAEGHNFKAQPDLAEAAATTTENPLQKIDAALAQVDTLRSDLGAVQNRFNSAITNLGNTVNNLTSARSRIEDSDYATEVSNMSRAQILQQAGTSVLAQANQVPQNVLSLLR
Activation of HEK-293 cells transfected with CD14 alone, or with non-corresponding TLRs [1]: unable to activate | Biological activity (TLR5 signalling) after heating (human TLR-5; 100 ng/ml, 100° C., by 1 h): almost completely abolished | Biological activity (TLR5) after low pH treatment (human TLR-5; [3]): increased | Bioactivity (TLR5) after protease treatment (human TLR-5; proteinase-K 37° C. 1 h): abolished

Reference: US20130095094A1, “ASSAY” (University of Leicester, priority 2010, published 2013)
